Results from ChEMBL document CHEMBL4602671, “Modified Eremophilanes from Parasenecio hastatus and Their Neuroprotective Activities” (J Nat Prod, 2020).
The source made the active and inactive calls. The calls are words filed in the database; no cut-off is given here.

Key:
[1] = test system: SH-SY5Y; assay: Neuroprotective activity in human SH-SY5Y cells assessed as reduction in H2O2-induced cell death at 1 uM preincubated for 1 hr followed by H2O2 addition and measured after 4 hrs by MTT assay relative to control; format: functional
[2] = test system: SH-SY5Y; assay: Neuroprotective activity in human SH-SY5Y cells assessed as reduction in H2O2-induced cell death at 10 uM preincubated for 1 hr followed by H2O2 addition and measured after 4 hrs by MTT assay; format: functional, cell-based
[3] = test system: SH-SY5Y; assay: Neuroprotective activity in human SH-SY5Y cells assessed as reduction in H2O2-induced cell death at 100 uM preincubated for 1 hr followed by H2O2 addition and measured after 4 hrs by MTT assay; format: functional, cell-based
[4] = test system: SH-SY5Y; assay: Cytotoxicity against human SH-SY5Y cells at 100 uM; format: cell-based

Row | SMILES | Activity [1] | Activity [2] | Activity [3] | Activity [4]
1 | CCOCc1c2c(C)cccc2c(OC)c2occ(C)c12 | inactive | Active | Active | –
2 | C/C=C(/C)C(=O)OC[C@@H]1c2c(c(OC)c3occ(C)c3c2C)C=C[C@@H]1O | >10% | Active | Active | –
3 | COC[C@@]1(O)c2c(C)cccc2C(=O)c2occ(C)c21 | Active | – | – | Toxic
4 | C/C=C(/C)C(=O)OCc1c(C(C)=O)c(O)c(OC)c2c1[C@@H](C)[C@@H](O)C=C2 | inactive | Active | Active | –
5 | Cc1coc2c1[C@](C)(O)c1c(ccc(O)c1C)C2=O | Active | Active | – | Toxic
6 | COc1c2c(c(C)c3c(C)coc13)[C@@H](C)[C@@H](O)CC2 | inactive | Active | Active | –
7 | C/C=C(/C)C(=O)OC[C@H]1c2c(c(OC)c3occ(C)c3c2C)C=C[C@H]1OC | >10% | Active | Active | –
8 | COCc1c2c(C)cccc2c(OC)c2occ(C)c12 | >10% | Active | Active | –
9 | Cc1c(C)c2c(c(C)c1O)CCC(C)(C(=O)O)O2 (stereo not given) | inactive | – | – | –
10 | COc1c(O)c(C(C)=O)c(C)c2c(C)cccc12 | inactive | Active | Active | –
11 | COc1c2c(c(C)c3c(C)coc13)[C@H](CO)[C@H](O)C=C2 | >10% | Active | Active | –
12 | Cc1cccc2c1[C@@](C)(O)c1c(C)coc1C2=O | Active | Active | – | Toxic
13 | Cc1cccc2c1C(=O)c1c(C)coc1C2=O | inactive | Active | Active | –
14 | COc1c2cccc(C)c2cc2c(C)coc12 | inactive | Active | Active | –
15 | COc1c2cccc(C)c2c(CO)c2c(C)coc12 | inactive | Active | Active | –
16 | COc1c(O)c(C(C)=O)c(C)c2c1C=CC[C@@H]2C | inactive | Active | Active | –
17 | COc1c2cccc(C)c2c(C)c2c(C)coc12 | >10% | Active | Active | –
18 | COC[C@H]1c2c(c(OC)c3occ(C)c3c2C)C=C[C@H]1O | >10% | Active | Active | –
19 | COc1c2c(c(C)c3c(C)coc13)[C@@H](C)[C@@H](O)C=C2 | >10% | Active | Active | –
20 | COc1c(O)c(C(C)=O)c(C)c2c1C=C[C@H](O)[C@@H]2C | inactive | Active | Active | –
21 | COc1c2c(c(C)c3c(C)coc13)[C@@H](C)[C@@H]1O[C@@H]1[C@H]2O | inactive | Active | Active | –
